Data taken from patent publication US5505715A, “Iontophoretic transdermal delivery of deoxyspergualin compounds” (priority 1994, dated 1996).
“Also recorded” adds a separate entry of the source. Where two headings read alike, the source gives them in different places.

What was measured:
tumors = details: cited from earlier work
[1] = test system: anti-KLH antibody response (keyhole limpet hemocyanin); assay: in vivo immunosuppression (anti-KLH antibody response) in fuzzy rats; set-up: species or system fuzzy rat
Excerpt: The humoral response of animals to the foreign protein keyhole limpet hemocyanin (KLH) is used routinely as a model system to test the efficacy of immunosuppressive drugs. Activity in this model has correlated well with activity for suppressing rejection of an allograft or suppressing the development of autoimmune disease in animals. […] The antibody level in the treated animals on the fourteenth day following the initial treatment was still only 6% of the level of the control animals.
Six fuzzy rats were used in this study. The procedure for this study was based on the model described by Tepper et al., Inhibition of Antibody Production by the Immunosuppressive Agent, 15-Deoxyspergualin, Transplant Proc., 23:328-32 (1991). This model involves immunizing the animals with a potent immunogenic antigen, keyhole limpet hemocyanin (KLH). The serum anti-KLH antibody levels (immune response) in the control and treated animals are then measured over 14 days. An effective immunosuppressive agent should result in a suppression of the immune response in the treated animals.
All six fuzzy rats were immunized with a solution of keyhole limpet hemocyanin (1 mg) by intraperitoneal injection. Two rats were used as controls and were not treated with DSG. The other four rats received DSG by transdermal iontophoresis. The electrodes and power supply used in the study of Example 2 were also used for this study. DSG solution (1.5 ml, 15.34 mg) was added to the donor (active) electrode just prior to the experiment. The electrodes were applied to each of the four participating fuzzy rats (one on either side of the spine). Prior to DSG treatment, the animals were anesthetized with METOFANE (methoxyflurane, Pitman-Moore, Mundelein, Ill.) and the hair on the dorsal side depilated. An anesthetic cocktail consisting of 10 ml of KETASET (ketamine HCL, 100 mg/ml; Aveco Co., Inc., Fort Dodge, Iowa) mixed with 2 ml ROMPUN (xylazine, 20 mg/ml; Mobay Corp., Shawnee, Kans.) was used at 0.1 ml per 100 g in order to maintain the animals under anesthesia during the treatment period. A current density of 0.5 mA/cm^2 /hr (2.9 mA total) was used to deliver the DSG. The four rats received DSG by iontophoresis for 3 hours daily over a period of three days (Days 0, 1 and 2) (Day 0 was the first day of the experiment). During this period food and water were provided ad libitum and these four animals were housed individually in metabolic cages so that urine could be collected for analysis. On Day 3 the animals were weighed and then returned to their regular cages for the remaining duration of the study. […]
The blood samples were stored on ice for 1 hour to coagulate and then centrifuged. The serum was separated and analyzed using an ELISA method described below. […] Aliquots were analyzed by HPLC. […]

interleukin-2 production = details: cited from earlier work
allograft survival = details: used prophylactically; cited from earlier work
[2] = cited from earlier work
[3] = cited from earlier work; remark: listed apart in the source
[4] = Protocol: Applicants have evaluated the in vitro delivery of DSG through human cadaver skin using iontophoresis.
An in vitro skin permeation study was conducted to evaluate the iontophoretic transdermal delivery of deoxyspergualin trihydrochloride (DSG) (MW=496) through human cadaver skin mounted in side-by-side glass diffusion cells. A 1.09% w/v solution of DSG was used as the donor solution. The receptor solution was 0.5M NaH2 PO4 aqueous solution. A commercially available power supply (Scepter, Keltronics Corp., Oklahoma City, Okla.) was used. Platinum electrodes were used for this study. The anode was connected to the electrode in the donor side while the cathode was connected to the electrode in the receptor (counterion) fluid. A constant DC current (0.5 mA, 0.78 mA/cm^2) was applied for a period of 48 hours. The receptor solution was sampled at appropriate time intervals. The samples were analyzed for DSG by reverse-phase HPLC using post-column derivatization and fluorescence detection.

[5] = test system: rheumatoid arthritis, diabetes, lupus and multiple sclerosis models; details: in vivo; cited from earlier work
[6] = test system: human anti-mouse antibody (HAMA) response; details: patients treated with monoclonal antibody therapy, cited from earlier work
immune activity = details: cited from earlier work
[7] = test system: organ transplant rejection; details: humans; cited from earlier work
[8] = set-up: species or system fuzzy rat; details: rat, in vivo
Protocol: Applicants have further conducted an in vivo study to investigate the rate and extent of absorption of DSG in fuzzy rats following transdermal iontophoretic administration. Using iontophoresis, approximately 4 mg of DSG (i.e., between 15-20 mg/kg) was delivered to fuzzy rats over a three-hour period. This is equivalent to a delivery rate of about 230 μg/cm^2 /hr of DSG. Relatively high serum levels of DSG, about 18 μg/ml, were observed after iontophoretic administration.
An aqueous solution of DSG trihydrochloride (10 mg/ml) was prepared two days prior to the experiment and stored at -5° C. until the start of the experiment. This solution was kept refrigerated during the course of the experiment.
Four male fuzzy rats from Harlan Laboratories (Indianapolis, Ind.) were used in this study after a one week quarantine period. The fuzzy rat is a hypotrichotic genetic mutuant of the normal albino rat. The main difference between adult fuzzy and normal haired rats is the poorly developed hair follicles in the skin of the former. As a result, adult fuzzy rats are almost devoid of hair. The fuzzy rats have an intact immune system. […]
Blood samples were taken from the tail artery during the treatment and at the end of the treatment period. […] Blood samples, used electrodes and skin wipes, and urine were analyzed for DSG by scintillation counting. The urine samples were also analyzed by HPLC.

N=C(N)NCCCCCCC(=O)NC(O)C(=O)NCCCCNCCCN (stereo not drawn) [DSG]
antitumor efficacy (tumors): appears to have antitumor efficacy | antibody level in treated animals as % of control ([1]; Day 14, iontophoresis 3 hours daily for three days): 6% | suppression of immune response ([1]; iontophoresis 3 hours daily for three days, versus untreated control): substantially suppressed the immune response; also recorded: effectively suppressed the immune response | deaths before Day 7 ([1]; of four rats treated by iontophoresis): Two | dose delivered relative to maximum tolerated dose (MTD) ([1]; rat, in vivo): proximate to the maximum tolerated dose (MTD) | inhibition of interleukin-2 production (interleukin-2 production): does not inhibit interleukin-2production | activity in extending allograft survival (allograft survival): significant activity in extending allograft survival | Cmax ([2]; 4 mg/kg by 3 hour i.v. infusion): about 10 μg/ml | clearance from plasma (in words) ([2]; human, in vivo): relatively rapid clearance | plasma clearance ([2]; human, in vivo): about 48,000 ml/hr | side effect profile ([3]; compared to cyclosporin A, azathioprine and prednisone (b7 also OKT3)): superior side effect profile | dose limiting toxicity ([3]; in vivo): myelosuppression | nephrotoxicity ([3]; unlike cyclosporin A): not nephrotoxic | change of permeation rate in later time period [4]: permeation rate decreased during the later time period | equivalent delivery for a 10 cm^2 delivery system [4]: 135 mg/day | equivalent dose for a 70 kg average body weight person [4]: 2 mg/kg/day | expected delivery for a 20 cm^2 donor electrode [4]: 270 mg/day | passive permeation across human cadaver skin [4]: very little passive permeation | permeation rate across human cadaver skin [4]: 564 μg/cm^2 /hr | activity in animal models of autoimmune disease [5]: effective in animal models in the treatment of autoimmune diseases like rheumatoid arthritis, diabetes and multiple sclerosis | activity against HAMA response [6]: immunosuppressive activity against the human anti-mouse antibody (HAMA) response | activity against HAMA response ([6]; listed as Deoxyspergualin): useful to suppress human anti-mouse antibody (HAMA) response | immunosuppressive activity (in words) (immune activity): excellent immunosuppressive activity | immunosuppressive potency relative to marketed immunosuppressants (immune activity; versus cyclosporin A, azathioprine and prednisone): at least as potent as other, currently marketed immunosuppressants | clinical activity as an immunosuppressant [7]: clinical activity as an immunosuppressant | dose delivered by iontophoresis per body weight [8]: 15 to 20 mg/kg | serum level of DSG ([8]; topical or ocular, 3 h): about 18 μg/ml
